Source: PubChem BioAssay (NCI)
“And” between values parts separate entries of the source, which are not always exact repeats. Identical values can stand only once.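 The compound was tested at five concentrations on cells cultured in 96-well plates, with a 48-hour exposure period. GI50 is the concentration that inhibits growth by half. TGI: concentration producing complete growth inhibition.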

test system: MDA-MB-468 breast; assay: DTP human tumour cell line panel, 48 h

**Q.** `COC(=O)CCC1=C(C)C(C)=N/C1=C\c1[nH]c(-c2ccc[nH]2)cc1OC` was tested. Which GI50 did it give?
**A.** Its GI50 is 647 nM.

**Q.** What about the TGI of the same compound?
**A.** Its TGI is 2700 nM.

**Q.** Which results are given for `N=C(N)c1ccc(-c2ccc(-c3cccs3)o2)cc1`?
**A.** GI50: 1720 nM; TGI: 3400 nM

**Q.** Which GI50 does the source give for `Cc1cnc(NC2CCOCC2)nc1-n1cnc(C(=O)N[C@H](CN)c2cc(F)cc(Cl)c2)c1` here?
**A.** Its GI50 is 2670 nM.

**Q.** What about the TGI of the same compound?
**A.** The TGI was 11800 nM.

**Q.** With `CCN1CCN(Cc2ccc(NC(=O)c3nc4ccc5[nH]ncc5c4c4c3CCCC4)cc2C(F)(F)F)CC1` as the compound, how does the GI50 read?
**A.** Its GI50 is 893 nM.

**Q.** And the TGI?
**A.** Its TGI is 1790 nM.

**Q.** `CC1CN=C(c2cccc(-c3ccc(-c4ccccc4)o3)c2)N1` (stereo not drawn) was tested. Which GI50 did it give?
**A.** Its GI50 is 1690 nM.

**Q.** What about the TGI of the same compound?
**A.** The TGI was 3920 nM.

**Q.** What does the source list for `COC(=O)[C@]12CC[C@@H](C(=O)/C=C/c3cccnc3)[C@@H]1[C@H]1CC[C@@H]3[C@@]4(C)C/C(=C/c5cccnc5)C(=O)C(C)(C)[C@@H]4CC[C@@]3(C)[C@]1(C)CC2`?
**A.** GI50: 272 nM; TGI: 712 nM

**Q.** How did the GI50 turn out when `O=C(Cc1ccc(OCc2ccccc2)cc1)NCc1ccc2c(c1)OCO2` was run?
**A.** The GI50 was 5900 nM.

**Q.** What about the TGI of the same compound?
**A.** The TGI was over 100000 nM.

**Q.** How did the GI50 turn out when `C#CCN(C)CCCOc1ccc(NCc2ccc(/C=C/C(=O)NO)cc2)cc1Cl` was run?
**A.** The GI50 was 411 nM.

**Q.** And the TGI?
**A.** Its TGI is 3550 nM.

**Q.** What does the source list for `CN1CCN(Cc2ccc(NC(=O)c3cncc(C#Cc4cnc5ccc(Cl)nn45)c3)cc2C(F)(F)F)CC1`?
**A.** GI50: 1110 nM; TGI: 2580 nM

**Q.** `C1CCC(C(CC2CCCCN2)C2CCCCC2)CC1` (stereo not drawn) was tested. Which GI50 did it give?
**A.** Its GI50 is 1370 nM.

**Q.** And the TGI?
**A.** Its TGI is 2850 nM.

**Q.** Which results are given for `CN1C(=O)C23CC4(C56CC78SSC(CO)(C(=O)N7C5Nc5ccccc56)N(C)C8=O)c5ccccc5NC4N2C(=O)C1(CO)SS3` (stereo not drawn)?
**A.** GI50: < 24.1 nM; TGI: 60.6 nM

**Q.** Which results are given for `CCOC(=O)C#Cc1c(C(=O)OCC)nnn1Cc1ccc(C(F)(F)F)cc1`?
**A.** GI50: 1880 nM; TGI: 4050 nM

**Q.** Which GI50 does the source give for `CO[C@H]1C[C@@H]2CC[C@@H](C)[C@@](O)(O2)C(=O)C(=O)N2CCCC[C@H]2C(=O)O[C@H]([C@H](C)C[C@@H]2CC[C@@H](O)[C@H](OC)C2)CC(=O)[C@H](C)C=C(C)[C@@H](O)[C@@H](OC)C(=O)[C@H](C)C[C@H](C)/C=C/C=C/C=C1C` here?
**A.** Its GI50 is 0.0364 nM and 0.315 nM.

**Q.** And the TGI?
**A.** The TGI was 13400 nM.

**Q.** `C/C(=N\NC(=O)c1ccccc1N)c1ccccc1O` was tested. Which GI50 did it give?
**A.** The GI50 was 1710 nM.

**Q.** What about the TGI of the same compound?
**A.** Its TGI is 13800 nM.

**Q.** With `O=C(Nc1ccc(-n2ccc3c(NC(=O)c4ccccc4)ncnc32)cc1)c1ccc(Cl)c(C(F)(F)F)c1` as the compound, how does the GI50 read?
**A.** Its GI50 is 2860 nM.

**Q.** And the TGI?
**A.** The TGI was 9230 nM.

**Q.** With `O=C1C=C(Nc2cccnc2)c2ccccc2C1=O` as the compound, how does the GI50 read?
**A.** Its GI50 is 3200 nM.

**Q.** And the TGI?
**A.** Its TGI is 11100 nM.

**Q.** For `CNC[C@@H](NC(=O)c1ccc(-c2nc([C@H]3CC[C@H](O)[C@@H](F)C3)cnc2N)cc1F)c1cc(F)cc(Br)c1`, which GI50 is on record?
**A.** The GI50 was 13200 nM.

**Q.** And the TGI?
**A.** The TGI was 28400 nM.

**Q.** What does the source list for `COc1ccc2c(c1)C(=O)c1c-2c(=O)n(CCCCCCC(=O)NO)c2ccccc12`?
**A.** GI50: 46.3 nM; TGI: 449 nM

**Q.** With `CCN1C2=C(SC(=S)C1=C1SC(C(=O)OC)=C(C(=O)OC)S1)SC(=Nc1ccc(OC)cc1)C2=O` as the compound, how does the GI50 read?
**A.** Its GI50 is 1730 nM.

**Q.** What about the TGI of the same compound?
**A.** The TGI was 3460 nM.

**Q.** What does the source list for `O=c1[nH]c2c3ccncc3cc(-c3cccc(Cl)c3)c2c2cnccc12`?
**A.** GI50: > 100000 nM; TGI: > 100000 nM

**Q.** `COc1ccc(-c2cn(-c3cccc(C(=O)/C=C/c4cc(OC)c(OC)c(OC)c4)c3)c(=O)[nH]2)cc1` was tested. Which GI50 did it give?
**A.** The GI50 was 3070 nM.

**Q.** And the TGI?
**A.** Its TGI is 10800 nM.

**Q.** Which results are given for `COc1cccc(-n2ncc3c(N/N=C/c4cccc(F)c4)ncnc32)c1`?
**A.** GI50: 5440 nM; TGI: 13600 nM

**Q.** `CC(C)CNC(=O)c1ccc(NC(=O)N(CC(C)C)C(=O)c2ccc(N)c(OCCCN)c2)c(OCCCN=C(N)N)c1` was tested. Which GI50 did it give?
**A.** The GI50 was over 62500 nM.

**Q.** And the TGI?
**A.** The TGI was over 62500 nM.

**Q.** How did the GI50 turn out when `Nc1cc2ccccc2c(O)c1O` was run?
**A.** Its GI50 is 2190 nM.

**Q.** What about the TGI of the same compound?
**A.** Its TGI is 4750 nM.

**Q.** How did the GI50 turn out when `COc1ccc2[nH]c(=O)c(/C=C/C(=O)c3ccccc3OC)cc2c1` was run?
**A.** The GI50 was 336 nM.

**Q.** What about the TGI of the same compound?
**A.** Its TGI is 1650 nM.

**Q.** `Oc1ccc(Cl)cc1-c1cc(-c2ccc(Cl)cc2)n[nH]1` was tested. Which GI50 did it give?
**A.** The GI50 was 1400 nM.

**Q.** What about the TGI of the same compound?
**A.** The TGI was 6440 nM.

**Q.** With `NC(=O)c1cc(Cl)ccc1NC(=O)COc1ccccc1` as the compound, how does the GI50 read?
**A.** Its GI50 is 1740 nM.

**Q.** What about the TGI of the same compound?
**A.** Its TGI is over 100000 nM.

**Q.** Which results are given for `C=C1C(=O)O[C@H]2[C@H]1CC/C(COC(=O)NCc1c[nH]c3ccc(Br)cc13)=C\CC[C@@]1(C)O[C@@H]21`?
**A.** GI50: 451 nM; TGI: 1930 nM

**Q.** How did the GI50 turn out when `O=C(C1CC1)N1CC[C@@H](Cc2n[nH]c(=O)n2-c2ccc(-c3ccc4occc4c3)cc2)C1` was run?
**A.** Its GI50 is 20300 nM.

**Q.** What about the TGI of the same compound?
**A.** The TGI was 98100 nM.

**Q.** For `NC1(c2ccc(-c3nc4ccn5c(=O)[nH]nc5c4cc3-c3ccccc3)cc2)CCC1`, which GI50 is on record?
**A.** The GI50 was 16.9 nM and 94.3 nM and 62.6 nM.

**Q.** For `CN(C)c1ccc(N=Nc2ccc(Br)cn2)c(O)c1`, which GI50 is on record?
**A.** Its GI50 is 469 nM.

**Q.** And the TGI?
**A.** Its TGI is 3980 nM.

**Q.** How did the GI50 turn out when `COC(=O)[C@@H](C)C[C@H](Cc1ccccc1)NC(=O)c1nc([C@@H](C[C@H](C(C)C)N(C)C(=O)[C@@H](NC(=O)[C@H]2CCCCN2C)C(C)C)OC(C)=O)sc1C(C)C` was run?
**A.** The GI50 was under 3.33 nM.

**Q.** What about the TGI of the same compound?
**A.** The TGI was 137 nM.

**Q.** For `C=C(C)[C@@H]1CC[C@]2(C)[C@H](CC[C@@H]3[C@@H]([C@@](C)(O)CCC=C(C)C)CC[C@]32C)[C@@]1(C)CCC(=O)N1CCN(C)CC1`, which GI50 is on record?
**A.** Its GI50 is 5490 nM.

**Q.** What about the TGI of the same compound?
**A.** The TGI was 18500 nM.

**Q.** Which results are given for `c1ccc(-c2nc([P+](c3ccccc3)(c3ccccc3)c3ccccc3)c(N3CCOCC3)o2)cc1`?
**A.** GI50: 278 nM; TGI: 1060 nM

**Q.** How did the GI50 turn out when `Nc1c(C(=O)c2cccc(-c3ccncc3)c2)cnn1-c1ccc(F)cc1` was run?
**A.** Its GI50 is 4420 nM.

**Q.** And the TGI?
**A.** Its TGI is over 25000 nM.

**Q.** What does the source list for `Cc1cc(-c2ccc(C3C(C#N)=C(N)Oc4c3c(=O)oc3ccccc43)cc2)cnc1F` (stereo not drawn)?
**A.** GI50: 17500 nM; TGI: 82500 nM

**Q.** How did the GI50 turn out when `CCCCCCCCCOc1c(OC)cc(C2CC(=O)Nc3c2c(C)nn3-c2nc3ccccc3[nH]2)cc1OC` (stereo not drawn) was run?
**A.** Its GI50 is 891 nM.

**Q.** What about the TGI of the same compound?
**A.** The TGI was 2090 nM.

**Q.** With `N=C(N)c1ccc(-c2ccc(-c3ccc(F)cc3)s2)nc1` as the compound, how does the GI50 read?
**A.** The GI50 was 1630 nM.

**Q.** And the TGI?
**A.** The TGI was 3380 nM.

**Q.** Which results are given for `c1ccc(-c2cccc(-c3ccccn3)n2)nc1`?
**A.** GI50: 284 nM; TGI: 1730 nM

**Q.** With `O=C1C=C2C(=CCOC2O)O1` (stereo not drawn) as the compound, how does the GI50 read?
**A.** The GI50 was 425 nM.

**Q.** And the TGI?
**A.** The TGI was 2760 nM.

**Q.** Which results are given for `COc1cc(/C=C\c2cc(/C=C\c3ccc(O)c(OC)c3)n(C(=O)COc3ccccc3)n2)ccc1O`?
**A.** GI50: 1710 nM; TGI: 7390 nM

**Q.** `C/C(=C\C(=N\N=C(N)N)c1ccc(Cl)cc1)c1ccc(Cl)cc1` was tested. Which GI50 did it give?
**A.** Its GI50 is 125 nM.

**Q.** What about the TGI of the same compound?
**A.** The TGI was 1460 nM.
